Measured values: paper PMC6862080, “Blood Compatibility—An Important but Often Forgotten Aspect of the Characterization of Antimicrobial Peptides for Clinical Application” (International Journal of Molecular Sciences, 2019)
Where two headings read alike, the source gives them in different places.

Experiments:
[1] = test system: all species of Enterobacteriaceae and Staphylococcus; conditions: against all species of Enterobacteriaceae and Staphylococcus; cited from earlier work
Protocol: It is noticeable that the MIC decreases with increasing acylation length of the peptide (Table 1). The antimicrobial effect of the LF11-322 peptides against E. coli and S. aureus decreased when the MIC was tested in 4% HSA solution. This is probably due to the partial binding of AMPs to albumin.

E. coli (ATCC 11303) = test: microbe, parasite or virus in culture; assay type: cell-based; conditions: for MIC: Escherichia coli
S. aureus (ATCC 12600) = test: microbe, parasite or virus in culture; assay type: cell-based; conditions: for MIC: Staphylococcus aureus
erythrocyte membranes [2] = test: Hemolysis in whole blood (Kahn method); assay type: cell-based, human; conditions: citrate anticoagulated whole blood, 60 min 37 °C, Kahn method, n = 3, control 3.7 ± 1.9; for Free Hemoglobin, BLOOD, 8 μg/mL: peptide conc. 8 μg/mL; for Free Hemoglobin, BLOOD, 32 μg/mL: peptide conc. 32 μg/mL; for Free Hemoglobin, BLOOD, 128 μg/mL: peptide conc. 128 μg/mL
Protocol: (§1) Hemolysis was tested with fresh citrate anticoagulated blood from healthy volunteers as well as with blood cells which were suspended in phosphate buffered saline (10 mM pH 7.4). Afterwards, 100 μL AMP solution was added to 500 μL blood to finally achieve AMP concentrations of 8, 32, and 128 μg/mL. As the negative and positive control, 100 μL PBS buffer and 100 μL 12% Triton-X buffer was added to 500 μL blood, respectively. After incubation on an orbital shaker for 60 min at 37 °C, the cells were removed by centrifugation and 100 μL of the supernatant were transferred to a 96 well microplate for hemolysis measurement. The hemolysis was calculated from the extinction at the wavelengths 562, 578, and 598 nm with a Synergy 2 microplate reader (BioTek, Winooski, VT, USA) according to the method published by Kahn.

plasmatic coagulation [3] = test: Activation of the clotting cascade in citrated plasma; conditions: citrated (17 mM) plasma, 128 μg/mL, 37 °C, 120 min, turbidity at 600 nm
Protocol: (§2) Plasma spiked with MES buffer without AMP was used as the negative control. […] Samples were incubated at 37 °C for 120 min. Coagulation was determined by turbidity measurement at 600 nm using a well plate reader.

erythrocyte membranes [4] = test: Hemolysis in RBC suspended in PBS (Kahn method); assay type: cell-based, human; conditions: 60 min 37 °C, Kahn method, n = 3, control 8.5 ± 4.7; for Free Hemoglobin, RBC in PBS, 128 μg/mL: blood cells suspended in PBS 10 mM pH 7.4, highest peptide conc.; for Free Hemoglobin, RBC in PBS, 8 μg/mL: blood cells suspended in PBS 10 mM pH 7.4, peptide conc. 8 μg/mL; for Free Hemoglobin, RBC in PBS, 32 μg/mL: blood cells suspended in PBS 10 mM pH 7.4, peptide conc. 32 μg/mL
Protocol: as §1

plasmatic coagulation [5] = test: Activation of the clotting cascade in heparinized plasma; conditions: heparinized (0.5 IU/mL) plasma, 128 μg/mL, 37 °C, 120 min, turbidity at 600 nm
Protocol: as §2

plasmatic coagulation [6] = test: Clotting batch test in citrate plasma; assay type: biochemical, human; conditions: citrate plasma, 37 °C, 60 min, turbidity 600 nm, fibrinogen and D-Dimer; also: key: −: no clotting observed, no D-dimers and normal fibrinogen level; +: clotting observed, high D-dimer level, no detectable fibrinogen serum level
Protocol: Since the acylated LF11-322 peptides cause plasmatic coagulation of citrate anticoagulated plasma, separate clotting experiments were performed with this peptide group. The aim was to check whether the coagulation activation is dependent on the AMP concentration and on the acyl chain length. […] Plasma without additives served as the negative control, whereas plasma spiked with CaCl2/MgCl2 (500/250 mM) solution to restore the physiological calcium and magnesium level in plasma was used as the positive control. Incubation was performed at 37 °C for 60 min. […] In order to ensure that the measured turbidity of the plasma is caused by fibrin formation, the fibrinogen and D-Dimer concentrations were additionally determined. During plasmatic clotting, the fibrinogen level decreases and the D-Dimer level in serum increases. Both were analyzed on a Sysmex CA560 with the corresponding reagents (Siemens Healthineers, Erlangen, Germany).

LPS from E. coli = test: Endotoxin inactivation in human serum, chromogenic LAL test (E. coli LPS); assay type: biochemical; conditions: 500 ng/mL peptide, 5 ng/mL LPS, n = 3
Protocol: (§3) The LPS neutralization study in serum was conducted using a chromogenic Limulus Amebocyte Lysate (LAL) test (Charles River Laboratories, MA, USA). The LAL test is the most established method for quantifying LPS. This method uses amebocyte lysate from Limulus polyphemus, wherein the presence of LPS triggers a defense mechanism that induces coagulation. The LAL test is used successfully for detection of LPS in a wide variety of industrial, pharmaceutical, and research applications, such as water supplies, parenteral fluids, drugs for intravenous administration, and certain biologic fluids (e.g., cerebrospinal fluid). Therefore, serum, which was obtained from freshly drawn blood, was spiked with 500 ng/mL AMPs, PMB or LL-37 before adding 5 ng/mL LPS from E. coli or P. aeruginosa. As positive and negative controls, native serum with and without LPS was used, respectively. Endotoxin activity was measured using the LAL assay according to the manufacturer’s specifications.

platelets = test: SEM imaging of platelet morphology in PRP; assay type: cell-based, human; conditions: 128 μg/mL, 2 h, 37 °C
Protocol: Since it was observed that some AMPs are able to activate the plasmatic coagulation system of heparinized and citrate anticoagulated blood, the influence of this peptides on platelets was investigated. For this purpose, fresh heparinized and citrated blood were collected from three donors. The blood was centrifuged at 500 g for 5 min and platelet rich plasma (PRP) was obtained. The PRP was incubated at 37 °C for 2 h with 128 μg/mL AMP, PMB, and LL-37. PRP without any additives served as the control. After incubation, the platelet number was determined by a Sysmex Automated Hematology Analyzer KX-21-N (Kobe, Japan). In addition, the PRP samples were prepared for SEM to visualize the morphology of the thrombocytes. After incubation, 10 μL PRP were diluted with 990 μL PBS (0.01 M) and filtered through a 0.2 μm membrane (Membrane Filter Isopore 0.2 μm, Merck, Darmstadt, Germany). The platelets were retained on the membrane, washed with 1 mL PBS, and fixed with 1 mL glutaraldehyde solution (2.5% glutaraldehyde in physiological saline solution). After an incubation time of 60 min, the samples were dehydrated using a series of ethanol (30%, 50%, 60%, 70%, 80%, 90%, and 100%). Afterwards the samples were dried overnight at RT, sputtered with gold and visualized with a scanning electron microscope (FLEXSem 1000, Hitachi, Japan).

LPS from P. aeruginosa = test: Endotoxin inactivation in human serum, chromogenic LAL test (P. aeruginosa LPS); assay type: biochemical; conditions: 500 ng/mL peptide, 5 ng/mL LPS, n = 3
Protocol: as §3

E. coli and S. aureus = test: Scanning electron microscopy of bacterial cell wall damage; assay type: cell-based; conditions: 128 μg/mL, overnight culture at 37 °C, 2 × 10^5–8 × 10^5 CFU/mL
Protocol: In order to verify and to visualize the impact of AMPs on the bacterial membrane, electron microscopy was conducted. Therefore, bacterial suspensions of E. coli and S. aureus with a concentration of 2 × 10^5–8 × 10^5 CFU/mL were incubated with 128 μg/mL of one AMP (LF11-322-C8) and PMB in a microplate over night at 37 °C. After overnight culture, the bacteria were prepared for SEM. To achieve this, the bacteria suspensions were filtered through a sterile filter (Swinnex filter holders, Merck Millipore, Burlington, MA, USA). The filters with the collected bacteria were than washed with PBS (10 mM, pH 7.2) and fixed with a 2.5% glutaraldehyde solution (Carl Roth, Karlsruhe, Deutschland). The fixed specimens were gradually dehydrated by increasing ethanol solutions (10% to 100%) and sputtered with gold (Q150R ES Sputter Coater, Quorum Technologies Ltd., East Sussex, UK) prior to examination with a scanning electron microscope (FlexSEM 1000, Hitachi, Tokyo, Japan).

[7] = test system: LPS-stimulated leukocytes; conditions: whole blood, PMB serum level between 100 to 200 ng; cited from earlier work
Protocol: Past studies have shown that a PMB serum level between 100 to 200 ng reduces the cytokine secretion of LPS-stimulated leukocytes up to 90% in whole blood. PMB directly interacts with the conserved lipid A region of the LPS molecule. […] In this study, it was tested whether the lactoferrin based peptides are able to form a complex with LPS similar to PMB, which would lead to a reduction of the inflammatory effect of LPS. The results (Figure 3) indicate that in c ...

[8] = 4% human serum albumin, DIN 58940-8, Müller-Hinton broth, overnight 37 °C, turbidity 620 nm
[9] = PBS containing 5 IU/mL heparin, DIN 58940-8, Müller-Hinton broth, overnight 37 °C, turbidity 620 nm
[10] = PBS pH 7.4, DIN 58940-8, Müller-Hinton broth, inoculum 2 × 10^5–8 × 10^5 CFU/mL, overnight 37 °C, turbidity 620 nm

| Molecule | Free Hemoglobin, BLOOD, 8 μg/mL (erythrocyte membranes [2]) [mg/dL] | Free Hemoglobin, BLOOD, 32 μg/mL (erythrocyte membranes [2]) [mg/dL] | Free Hemoglobin, BLOOD, 128 μg/mL (erythrocyte membranes [2]) [mg/dL] | Plasma clot, Citrated Plasma (plasmatic coagulation [3]) | Free Hemoglobin, RBC in PBS, 128 μg/mL (erythrocyte membranes [4]) [mg/dL] | Free Hemoglobin, RBC in PBS, 8 μg/mL (erythrocyte membranes [4]) [mg/dL] | Free Hemoglobin, RBC in PBS, 32 μg/mL (erythrocyte membranes [4]) [mg/dL] | Plasma clot, Heparin Plasma (plasmatic coagulation [5]) | Clotting of citrate plasma, Peptide Concentration 8 μg/mL (plasmatic coagulation [6]) | Clotting of citrate plasma, Peptide Concentration 32 μg/mL (plasmatic coagulation [6]) | Clotting of citrate plasma, Peptide Concentration 128 μg/mL (plasmatic coagulation [6]) | Clotting of citrate plasma, Peptide Concentration 256 μg/mL (plasmatic coagulation [6]) | other results |
| --- | --- | --- | --- | --- | --- | --- | --- | --- | --- | --- | --- | --- | --- |
| O=C(O)c1cn(C2CC2)c2cc(N3CCNCC3)c(F)cc2c1=O [Ciprofloxacin, reference compound] |  |  |  |  |  |  |  |  |  |  |  |  | MIC90 [1]: < 1 mg/L; MIC (E. coli (ATCC 11303); ATCC11303, pH 7.4, read-out: Minimal Inhibitory Concentration, E. coli, PBS): < 0.0625 µg/mL; MIC (E. coli (ATCC 11303); ATCC11303, read-out: Minimal Inhibitory Concentration, E. coli, PBS + heparin): < 0.0625 µg/mL; MIC (S. aureus (ATCC 12600); ATCC12600, pH 7.4, read-out: Minimal Inhibitory Concentration, S. aureus, PBS): < 0.0625 µg/mL; MIC (S. aureus (ATCC 12600); ATCC12600, read-out: Minimal Inhibitory Concentration, S. aureus, PBS + heparin): < 0.0625 µg/mL |
| CC[C@H](C)[C@H](NC(=O)[C@H](CCCCN)NC(=O)[C@H](CCC(=O)O)NC(=O)[C@H](CCCCN)NC(=O)[C@H](CO)NC(=O)[C@H](CCCCN)NC(=O)[C@H](CCCNC(=N)N)NC(=O)[C@H](Cc1ccccc1)NC(=O)[C@H](Cc1ccccc1)NC(=O)[C@H](CC(=O)O)NC(=O)CNC(=O)[C@H](CC(C)C)NC(=O)[C@@H](N)CC(C)C)C(=O)NCC(=O)N[C@@H](CCCCN)C(=O)N[C@@H](CCC(=O)O)C(=O)N[C@@H](Cc1ccccc1)C(=O)N[C@@H](CCCCN)C(=O)N[C@@H](CCCNC(=N)N)C(=O)N[C@H](C(=O)N[C@H](C(=O)N[C@@H](CCC(N)=O)C(=O)N[C@@H](CCCNC(=N)N)C(=O)N[C@H](C(=O)N[C@@H](CCCCN)C(=O)N[C@@H](CC(=O)O)C(=O)N[C@@H](Cc1ccccc1)C(=O)N[C@@H](CC(C)C)C(=O)N[C@@H](CCCNC(=N)N)C(=O)N[C@@H](CC(N)=O)C(=O)N[C@@H](CC(C)C)C(=O)N[C@H](C(=O)N1CCC[C@H]1C(=O)N[C@@H](CCCNC(=N)N)C(=O)N[C@H](C(=O)N[C@@H](CCC(=O)O)C(=O)N[C@@H](CO)C(=O)O)[C@@H](C)O)C(C)C)[C@@H](C)CC)C(C)C)[C@@H](C)CC [LL-37, reference compound] | 1.1 ± 0.7 | 9.4 ± 13.4 | 2.6 ± 3.7 | − | 68.4 ± 15.0 | 2.4 ± 3.6 | 44.8 ± 17.7 | − | − | − | − | − |  |
| Polymyxin B [PMB, reference compound] | 3.5 ± 2.8 | 3.7 ± 1.4 | 2.6 ± 3.9 | − | 1.9 ± 0.2 | 14.9 ± 3.1 | 18.9 ± 11.2 | − | − | − | − | − | Minimal Inhibitory Concentration, E. coli, 4% HSA (E. coli (ATCC 11303); [8]): 4 µg/mL; Minimal Inhibitory Concentration, E. coli, PBS + heparin (E. coli (ATCC 11303); [9]): 4 µg/mL; Minimal Inhibitory Concentration, E. coli, PBS (E. coli (ATCC 11303); [10]): 2 µg/mL; Reduction of endotoxin activity of E. coli LPS (LPS from E. coli): 63 ± 7%; Platelet morphology by SEM, citrate anticoagulated PRP (in words) (platelets): morphologically intact platelets; Reduction of endotoxin activity of P. aeruginosa LPS (LPS from P. aeruginosa): 74 ± 7%; Lysis of bacteria cells seen by SEM (in words) (E. coli and S. aureus): not able to lyse S. aureus cells; Reduction of cytokine secretion of LPS-stimulated leukocytes [7]: up to 90%; Minimal Inhibitory Concentration, S. aureus, 4% HSA (S. aureus (ATCC 12600); [8]): 64 µg/mL; Minimal Inhibitory Concentration, S. aureus, PBS + heparin (S. aureus (ATCC 12600); [9]): > 128 µg/mL; Minimal Inhibitory Concentration, S. aureus, PBS (S. aureus (ATCC 12600); [10]): 8 µg/mL |
